Reference: ChEMBL document CHEMBL1142761, “SAR studies of 6-aryl-1,3-dihydrobenzimidazol-2-ones as progesterone receptor antagonists” (Bioorg Med Chem Lett, 2005)

Molecular target: T1, Progesterone receptor (Homo sapiens, UniProt P06401)
T1 sequence (P06401 whole entry): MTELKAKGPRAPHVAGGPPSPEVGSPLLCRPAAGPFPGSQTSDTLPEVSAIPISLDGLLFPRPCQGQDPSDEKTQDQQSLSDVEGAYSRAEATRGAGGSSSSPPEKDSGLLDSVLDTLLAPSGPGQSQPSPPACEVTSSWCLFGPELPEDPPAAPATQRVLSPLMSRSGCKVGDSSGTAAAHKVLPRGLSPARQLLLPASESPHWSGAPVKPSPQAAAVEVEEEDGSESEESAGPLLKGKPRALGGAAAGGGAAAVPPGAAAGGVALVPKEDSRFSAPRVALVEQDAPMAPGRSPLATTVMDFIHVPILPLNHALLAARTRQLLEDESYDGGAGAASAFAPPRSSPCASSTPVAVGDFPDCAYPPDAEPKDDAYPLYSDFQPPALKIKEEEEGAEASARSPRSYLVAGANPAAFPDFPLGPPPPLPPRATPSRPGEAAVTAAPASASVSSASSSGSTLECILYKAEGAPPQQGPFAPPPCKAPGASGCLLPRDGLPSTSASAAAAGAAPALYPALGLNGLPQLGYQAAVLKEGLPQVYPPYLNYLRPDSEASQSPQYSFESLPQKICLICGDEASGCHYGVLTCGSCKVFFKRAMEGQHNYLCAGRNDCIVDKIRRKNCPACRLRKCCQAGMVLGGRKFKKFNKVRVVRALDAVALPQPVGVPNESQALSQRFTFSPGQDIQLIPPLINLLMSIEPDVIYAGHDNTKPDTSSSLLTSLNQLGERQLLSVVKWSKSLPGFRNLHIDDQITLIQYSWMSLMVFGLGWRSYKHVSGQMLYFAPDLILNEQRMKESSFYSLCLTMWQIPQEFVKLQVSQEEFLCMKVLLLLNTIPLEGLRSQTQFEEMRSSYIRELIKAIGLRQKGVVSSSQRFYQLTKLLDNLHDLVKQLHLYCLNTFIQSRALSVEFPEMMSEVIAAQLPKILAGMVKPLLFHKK
Assay: Progesterone receptor agonist activity in human T47D breast carcinoma cell alkaline phosphatase assay
Type: functional, cell-based

| SMILES | IC50 |
| --- | --- |
| CCC(CC)n1c(=O)[nH]c2ccc(-c3cc(F)cc(C#N)c3)cc21 | 29 nM |
| CCC(CC)n1c(=O)[nH]c2ccc(-c3ccc(F)c(Cl)c3)cc21 | 426 nM |
| CCC(CC)n1c(=O)[nH]c2ccc(-c3ccc(C#N)n3C)cc21 | 11.7 nM |

Molecular target: T1, Progesterone receptor
Assay: Progesterone receptor antagonist activity in human T47D breast carcinoma cell alkaline phosphatase assay

| SMILES | IC50 |
| --- | --- |
| N#Cc1cc(F)cc(-c2ccc3[nH]c(=O)n(C4CCCC4)c3c2)c1 | 5.7 nM |
| CC(C)n1c(O)nc2ccc(-c3ccc(F)c(C#N)c3)cc21 | 60.3 nM |
| O=c1[nH]c2ccc(-c3ccc(F)c(F)c3)cc2n1C1CCC1 | 175 nM |
| CC(C)n1c(O)nc2ccc(-c3ccc(C#N)n3C)cc21 | 4.7 nM |
| CC(C)n1c(=O)[nH]c2ccc(-c3ccc(F)c(Cl)c3)cc21 | 106 nM |
| Cn1c(C#N)ccc1-c1ccc2[nH]c(=O)n(C3CCCC3)c2c1 | 5.6 nM |
| CC(C)n1c(O)nc2ccc(-c3ccccc3F)cc21 | 412 nM |
| O=c1[nH]c2ccc(-c3ccc(F)c(F)c3)cc2n1C1CCCC1 | 96.8 nM |
| CC(C)n1c(O)nc2ccc(-c3ccc(F)cc3)cc21 | 295 nM |
| N#Cc1cc(F)cc(-c2ccc3[nH]c(=O)n(-c4cccc(Cl)c4)c3c2)c1 | 3000 nM |
| CC(C)n1c(=O)[nH]c2ccc(-c3cccc(F)c3)cc21 | 77.9 nM |
| N#Cc1cc(F)cc(-c2ccc3[nH]c(=O)n(C4CCCCC4)c3c2)c1 | 83.6 nM |
| CC(C)n1c(O)nc2ccc(-c3ccc(F)c(F)c3)cc21 | 207 nM |
| N#Cc1cc(F)cc(-c2ccc3[nH]c(=O)n(C4CCC4)c3c2)c1 | 3.3 nM |
| CC(C)n1c(=O)[nH]c2ccc(-c3cc(Cl)cc(Cl)c3)cc21 | 100 nM |
| Cc1cc(C#N)sc1-c1ccc2nc(O)n(C(C)C)c2c1 | 24.8 nM |
| Oc1nc2ccc(-c3ccc(F)c(Cl)c3)cc2n1C1CCCC1 | 135 nM |
| CC(C)n1c(O)nc2ccc(-c3cc(F)cc(C#N)c3)cc21 | 29.6 nM |
| N#Cc1cc(F)cc(-c2ccc3[nH]c(=O)n(-c4ccccc4)c3c2)c1 | 137 nM |
| Cn1c(C#N)ccc1-c1ccc2[nH]c(=O)n(C3CCC3)c2c1 | 10.9 nM |
| Oc1nc2ccc(-c3ccc(F)c(Cl)c3)cc2n1C1CCC1 | 106 nM |
